Experimental data published in patent US20240174674A1, “NITROGEN-CONTAINING POLYCYCLIC FUSED RING COMPOUND, PHARMACEUTICAL COMPOSITION THEREOF, PREPARATION METHOD THEREFOR, AND USE THEREOF” (APPLIED PHARMACEUTICAL SCIENCE, INC., priority 2021, published 2024).
Like-named read-outs stand apart in the source and are kept apart here.

Assays:
[1] = target: RET-wt (Homo sapiens (Human), UniProt P07949); assay: HTRF KinEASE-TK kinase activity test, RET-wt; format: biochemical; settings: for IC50: HTRF kinase assay; for inhibitory activity against RET-wt compared to that of cabozantinib: versus cabozantinib
[2] = target: RET V804M (Homo sapiens (Human), UniProt P07949, V804M); assay: HTRF KinEASE-TK kinase activity test, RET V804M; format: biochemical; settings: for IC50: HTRF kinase assay; for inhibitory activity against RET V804M compared to that of cabozantinib: versus cabozantinib
[3] = target: RET G810R (Homo sapiens (Human), UniProt P07949, G810R); assay: HTRF KinEASE-TK kinase activity test, RET G810R; settings: for inhibitory activity against RET G810R relative to that of selpercatinib (LOXO-292): fold versus selpercatinib (LOXO-292)
[4] = read-out: RET G810R IC50, HTRF kinase assay

RET V804M, sequence (P07949 29-1114 V804M): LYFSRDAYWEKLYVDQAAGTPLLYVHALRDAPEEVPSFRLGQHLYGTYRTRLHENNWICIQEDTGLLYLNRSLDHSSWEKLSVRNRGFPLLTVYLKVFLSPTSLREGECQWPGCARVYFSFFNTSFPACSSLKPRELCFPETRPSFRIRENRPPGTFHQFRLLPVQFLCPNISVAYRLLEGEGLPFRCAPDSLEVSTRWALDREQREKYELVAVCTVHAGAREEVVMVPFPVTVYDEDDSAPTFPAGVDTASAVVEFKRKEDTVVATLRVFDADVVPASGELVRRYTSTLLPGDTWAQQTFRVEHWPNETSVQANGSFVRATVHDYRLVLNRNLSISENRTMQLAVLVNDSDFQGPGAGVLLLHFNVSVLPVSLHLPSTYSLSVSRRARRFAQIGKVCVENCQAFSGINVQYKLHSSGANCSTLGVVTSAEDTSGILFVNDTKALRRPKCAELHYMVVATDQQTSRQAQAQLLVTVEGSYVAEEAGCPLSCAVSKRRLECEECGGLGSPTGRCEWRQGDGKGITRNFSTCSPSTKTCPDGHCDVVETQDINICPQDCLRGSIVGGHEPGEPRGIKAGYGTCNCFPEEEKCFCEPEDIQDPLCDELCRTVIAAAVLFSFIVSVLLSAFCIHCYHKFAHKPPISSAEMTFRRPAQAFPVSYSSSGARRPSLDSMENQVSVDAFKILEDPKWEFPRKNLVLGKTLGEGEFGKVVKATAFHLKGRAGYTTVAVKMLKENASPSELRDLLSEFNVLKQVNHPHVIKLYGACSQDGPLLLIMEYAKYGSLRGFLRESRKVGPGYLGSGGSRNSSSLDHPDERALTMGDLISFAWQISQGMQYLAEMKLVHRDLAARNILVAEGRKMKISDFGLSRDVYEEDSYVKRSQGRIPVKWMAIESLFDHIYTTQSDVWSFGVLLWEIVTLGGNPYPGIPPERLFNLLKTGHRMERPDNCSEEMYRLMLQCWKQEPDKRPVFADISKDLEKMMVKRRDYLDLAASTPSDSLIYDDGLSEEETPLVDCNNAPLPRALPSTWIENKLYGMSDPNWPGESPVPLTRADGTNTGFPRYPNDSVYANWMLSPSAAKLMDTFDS
RET-wt, sequence (P07949 29-1114): as the sequence (P07949 29-1114 V804M) above, with M776V counted along it
RET G810R, sequence (P07949 29-1114 G810R): as the sequence (P07949 29-1114 V804M) above, with M776V, G782R counted along it

| Compound | IC50 [1] | inhibitory activity against RET-wt compared to that of cabozantinib [1] | IC50 [2] | inhibitory activity against RET V804M compared to that of cabozantinib [2] | inhibitory activity against RET G810R relative to that of selpercatinib (LOXO-292) [3] | IC50 [3, 4] | IC50 [3] |
| --- | --- | --- | --- | --- | --- | --- | --- |
| CCOc1cc(-c2ccc(N3CCC(C)(NC(=O)c4ncccc4Cl)CC3)nc2)c2c3cn[nH]c3nn2c1 [Compound 3, 3-chloro-N-(1-(5-(6-ethoxy-1H-pyrazolo[3′,4′:3,4]pyrazolo[1,5-α]pyridin-4-yl)pyridin-2-yl)-4-methylpiperidin-4-yl)-2-picolinamide] | 0.1 nM | significantly superior | 0.1 nM | significantly superior | ≥ 10 times | 2.9 nM | – |
| CCOc1cc(-c2ccc(N3CCC(C)(NC(=O)c4ncc(F)cc4Cl)CC3)nc2)c2c3cn[nH]c3nn2c1 [Compound 4] | 0.1 nM | significantly superior | 0.03 nM | significantly superior | ≥ 10 times | 2.3 nM | – |
| CCOc1cc(-c2ccc(N3C[C@H]4CN(C(=O)c5c(F)cccc5Cl)C[C@H]4C3)nc2)c2c3cn[nH]c3nn2c1 [Compound 118, N-((3aR,6aS)-5-(5-(6-ethoxy-1H-pyrazolo[3′,4′:3,4]pyrazolo[1,5-α]pyridin-4-yl)pyridin-2-yl)hexahydropyrrolo[3,4-c]pyrrol-2(1H)-yl)-2-chloro-6-fluorobenzamide] | – | – | – | – | – | 7.7 nM | – |
| CCOc1cc(-c2ccc(N3CCCC4(CCN(Cc5ccc(OC)nc5)CC4)C3)nc2)c2c3cn[nH]c3nn2c1 [Compound 219, 6-ethoxy-4-(6-(9-((6-methoxypyridin-3-yl)methylene)-2,9-diazaspiro[5.5]undecan-2-yl)pyridin-3-yl)-1H-pyrazolo[3′,4′:3,4]pyrazolo[1,5-α]pyridine] | – | – | – | – | – | 66.4 nM | – |
| CCOc1cc([C@H]2CC[C@](OC)(C(=O)N[C@@H](C)c3ccc(-n4cc(F)cn4)nc3)CC2)c2c3cn[nH]c3nn2c1 [Compound 258, (1S,4R)-4-(6-ethoxy-1H-pyrazolo[3′,4′:3,4]pyrazolo[1,5-α]pyridin-4-yl)-N—((S)-1-(6-(4-fluoro-1H-pyrazol-1-yl)pyridin-3-yl)ethyl)-1-methoxycyclohexane-1-carboxamide] | – | – | – | – | – | 9.9 nM | – |
| CCOc1cc(-c2ccc(N3CCC(S(=O)(=O)Cc4ccccc4)CC3)nc2)c2c3cn[nH]c3nn2c1 [Compound 34] | – | – | – | – | – | 4.9 nM | – |
| CCOc1cc(-c2ccc(N3CC4CC(C3)N4Cc3ccc(OC)nc3)nc2)c2c3cc[nH]c3nn2c1 [Compound 297, 6-ethoxy-4-(6-(6-((6-methoxypyridin-3-yl)methyl)-3,6-diazabicyclo[3.1.1]heptan-3-yl)pyridin-3-yl)-1H-pyrrolo[2′,3′:3,4]pyrazolo[1,5-α]pyridine] | – | – | – | – | – | – | 9.6 nM |
| CCOc1cc(-c2ccc(N3CC4CC(C3)N4Cc3ccc(OC)nc3)nc2)c2c3c(C#N)n[nH]c3nn2c1 [Compound 248, 3-cyano-6-ethoxy-4-(6-(6-((6-methoxypyridin-3-yl)methyl)-3,6-diazabicyclo[3.1.1]heptan-3-yl)pyridin-3-yl)-1H-pyrazolo[3′,4′:3,4]pyrazolo[1,5-α]pyridine] | – | – | – | – | – | 15.5 nM | – |

Next, values leading:

| IC50 [1] | inhibitory activity against RET-wt compared to that of cabozantinib [1] | IC50 [2] | inhibitory activity against RET V804M compared to that of cabozantinib [2] | inhibitory activity against RET G810R relative to that of selpercatinib (LOXO-292) [3] | IC50 [3, 4] | IC50 [3] | Compound |
| --- | --- | --- | --- | --- | --- | --- | --- |
| 0.1 nM | significantly superior | 0.06 nM | significantly superior | ≥ 10 times | 1.6 nM | – | CCOc1cc(-c2ccc(N3CC[C@H](NC(=O)c4cc(F)ccc4C)[C@@H](O)C3)nc2)c2c3cn[nH]c3nn2c1 [Compound 46] |
| 0.1 nM | significantly superior | 0.1 nM | significantly superior | – | 4.2 nM | – | CCOc1cc(-c2ccc(N3CC[C@H](NC(=O)CC(C)C)[C@@H](O)C3)nc2)c2c3cn[nH]c3nn2c1 [Compound 39] |
| 0.1 nM | significantly superior | 0.1 nM | significantly superior | ≥ 10 times | 0.36 nM | – | CCOc1cc(-c2ccc(N3CCC(CO)(NC(=O)c4c(F)cccc4F)CC3)nc2)c2c3cn[nH]c3nn2c1 [Compound 11, N-(1-(5-(6-ethoxy-1H-pyrazolo[3′,4′:3,4]pyrazolo[1,5-α]pyridin-4-yl)pyridin-2-yl)-4-(hydroxymethyl)piperidin-4-yl)-2,6-difluorobenzamide] |
| 0.1 nM | significantly superior | 0.05 nM | significantly superior | ≥ 10 times | 1.4 nM | – | CCOc1cc(-c2ccc(N3CC[C@H](NC(=O)c4ncccc4Cl)[C@H](O)C3)nc2)c2c3cn[nH]c3nn2c1 [Compound 42] |
| 0.1 nM | significantly superior | 0.2 nM | significantly superior | – | 7.8 nM | – | CCOc1cc(-c2ccc(N3CC[C@H](NC(=O)OC(C)(C)C)[C@@H](O)C3)nc2)c2c3cn[nH]c3nn2c1 [Compound 88, Tert-butyl ((3S,4S)-1-(5-(6-ethoxy-1H-pyrazolo[3′,4′:3,4]pyrazolo[1,5-α]pyridin-4-yl)pyridin-2-yl)-3-hydroxypiperidin-4-yl)carbamate] |
| 0.1 nM | significantly superior | 0.1 nM | significantly superior | ≥ 10 times | 0.8 nM | – | CCOc1cc(-c2ccc(N3CC[C@H](NC(=O)c4c(F)cccc4Cl)[C@@H](O)C3)nc2)c2c3cn[nH]c3nn2c1 [Compound 44, 2-chloro-N-((3S,4S)-1-(5-(6-ethoxy-1H-pyrazolo[3′,4′:3,4]pyrazolo[1,5-α]pyridin-4-yl)pyridin-2-yl)-3-hydroxypiperidin-4-yl)-6-fluorobenzamide] |
| 0.1 nM | significantly superior | 0.1 nM | significantly superior | ≥ 10 times | 2.8 nM | – | CCOc1cc(-c2ccc(N3CC[C@H](NC(=O)C4(C(F)(F)F)CCC4)[C@@H](O)C3)nc2)c2c3cn[nH]c3nn2c1 [Compound 41] |
| – | – | – | – | ≥ 10 times | 1.8 nM | – | CCOc1cc(-c2ccc(N3CC[C@H](NC(=O)c4cc(F)ccc4F)[C@H](O)C3)nc2)c2c3cn[nH]c3nn2c1 [Compound 273, N-((3R,4S)-1-(5-(6-ethoxy-1H-pyrazolo[3′,4′:3,4]pyrazolo[1,5-α]pyridin-4-yl)pyridin-2-yl)-3-hydroxypiperidin-4-yl)-2,5-difluorobenzamide] |
| – | – | – | – | – | 8.2 nM | – | CCOc1cc(-c2ccc(N3C[C@@H]4[C@H](C3)[C@@H]4NC(=O)c3c(F)cccc3Cl)nc2)c2c3cn[nH]c3nn2c1 [Compound 172, 2-chloro-N-((1R,5S,6R)-3-(5-(6-ethoxy-1H-pyrazolo[3′,4′:3,4]pyrazolo[1,5-α]pyridin-4-yl)pyridin-2-yl)-3-azabicyclo[3.1.0]hexan-6-yl)-6-fluorobenzamide] |
| – | – | – | – | ≥ 10 times | 0.7 nM | – | CCOc1cc(-c2ccc(N3CC[C@H](NC(=O)c4cc(F)ccc4Cl)[C@H](O)C3)nc2)c2c3cn[nH]c3nn2c1 [Compound 276, 2-chloro-N-((3R,4S)-1-(5-(6-ethoxy-1H-pyrazolo[3′,4′:3,4]pyrazolo[1,5-α]pyridin-4-yl)pyridin-2-yl)-3-hydroxypiperidin-4-yl)-5-fluorobenzamide] |
| – | – | – | – | ≥ 10 times | 1.3 nM | – | CCOc1cc(-c2ccc(N3CC[C@H](NC(=O)c4c(F)ccc(F)c4F)[C@H](O)C3)nc2)c2c3cn[nH]c3nn2c1 [Compound 274, N-((3R,4S)-1-(5-(6-ethoxy-1H-pyrazolo[3′,4′:3,4]pyrazolo[1,5-α]pyridin-4-yl)pyridin-2-yl)-3-hydroxypiperidin-4-yl)-2,3,6-trifluorobenzamide] |
